Assay results: patent US7919487B2, “Heteroaryl compounds” (Synta Pharmaceuticals Corporation, priority 2004, dated 2011)

Test system: IL-12 production in human PBMC or THP-1 cells
Test: Human in vitro assay: inhibition of IL-12 production in human PBMC or THP-1 cells (ELISA)
Type: cell-based
Details: THP-1, human PBMC or THP-1 cells, IFNγ plus LPS or SAC stimulation, representative in vitro data
Text: The biological activities of the compounds of the invention can be evaluated by a number of cell-based assays. One of such assays can be conducted using cells from human peripheral blood mononuclear cells (PBMC) or human monocytic cell line (THP-1). The cells are stimulated with a combination of human interferon-γ (IFNγ) and lipopolysaccharide or a combination of IFNγ and Staphylococcus aureus Cowan I in the presence of a test compound. The level of inhibition of IL-12 production can be measured by determining the amount of p70 by using a sandwich ELISA assay with anti-human IL-12 antibodies. IC50 of the test compound can then be determined. Specifically, PBMC or THP-1 cells are incubated with the test compound. Cell viability was assessed using the bioreduction of MTS [3-(4,5-dimethylthiazol-2-yl)-5-(3-carboxymethoxyphenyl)-2-(4-sulfophenyl)-2H-tetrazolium] (Promega, Madison, Wis.).
Reagents. Staphylococcus aureus Cowan I (SAC) was obtained from Calbiochem (La Jolla, Calif.), and lipopolysaccharide (LPS, Serratia marscencens) was obtained from Sigma (St Louis, Mo.). Human and mouse recombinant IFNγ were purchased from Boehringer Mannheim (Mannheim, Germany) and Pharmingen (San Diego, Calif.), respectively.
Human In Vitro Assay. Human PBMC were isolated by centrifugation using Ficoll-Paque (Pharmacia Biotech, Uppsala, Sweden) and prepared in RPMI medium supplemented with 10% fetal calf serum (FCS), 100 U/mL penicillin, and 100 μg/mL streptomycin. PBMC were plated in wells of a 96-well plate at a concentration of 5×10^5 cells/well, and primed by adding IFNγ (30 U/mL) for 22 h and stimulated by adding LPS (1 μg/mL), or by adding IFNγ (100 U/mL) and then stimulated by adding SAC (0.01%). A test pyrimidine compound was dissolved in DMSO, and added to wells of the 96-well plate. The final DMSO concentration was adjusted to 0.25% in all cultures, including the compound-free control. Human THP-1 cells were plated in wells, primed by adding IFNγ (100 U/mL) for 22 h and stimulated by adding SAC (0.025%) in the presence of different concentrations of the pyrimidine compound. Cell-free supernatants were taken 18 h later for measurement of cytokines. Cell viability was assessed using the bioreduction of MTS. Cell survival was estimated by determining the ratio of the absorbance in compound-treated groups versus compound-free control.
The supernatant was assayed for the amount of IL-12p40, IL-12p70, or IL-10 by using a sandwich ELISA with anti-human antibodies, i.e., a Human IL-12 p40 ELISA kit from R&D Systems (Berkeley, Calif.), and a Human IL-12 p70 or IL-10 ELISA kit from Endogen (Cambridge, Mass.). Assays were based on the manufacturer's instructions.
The biological activities of compounds were tested on human PBMC or THP-1 cells.

Q: For `COc1nc(N/N=C/c2cn(C)c3ccccc23)nc(N(C(C)C)C(C)C)n1` [Compound 1, Diisopropyl-{4-methoxy-6-[N′-(1-methyl-1H-indol-3-ylmethylene)-hydrazino]-[1,3,5]triazin-2-yl}-amine], which IC50 is on record?
A: 13000 nM

Q: How did the IC50 turn out when `COc1nc(N/N=C/c2c[nH]c3ccccc23)nc(N(C(C)C)C(C)C)n1` [Compound 2, {4-[N′-(1H-Indol-3-ylmethylene)-hydrazino]-6-methoxy-[1,3,5]triazin-2-yl}-diisopropyl-amine] was run?
A: 13600 nM

Q: For `COc1nc(N/N=C/c2c[nH]c3c(C)cccc23)nc(N(C(C)C)C(C)C)n1` [Compound 3, Diisopropyl-{4-methoxy-6-[N′-(7-methyl-1H-indol-3-ylmethylene)-hydrazino]-[1,3,5]triazin-2-yl}-amine], which IC50 is on record?
A: 7800 nM

Q: How did the IC50 turn out when `COc1nc(N/N=C/c2c[nH]c3ccc(F)cc23)nc(N(C(C)C)C(C)C)n1` [Compound 4, {4-[N′-(5-Fluoro-1H-indol-3-ylmethylene)-hydrazino]-6-methoxy-[1,3,5]triazin-2-yl}-diisopropyl-amine] was run?
A: 13000 nM

Q: Which IC50 does the source give for `COc1nc(N/N=C/c2cn(C(C)=O)c3ccccc23)nc(N(C(C)C)C(C)C)n1` [Compound 5, 1-{3-[(4-Diisopropylamino-6-methoxy-[1,3,5]triazin-2-yl)-hydrazonomethyl]-indol-1-yl}-ethanone] here?
A: 12000 nM

Q: How did the IC50 turn out when `COc1ccc(CCOc2nc(N/N=C/c3c[nH]c4ccccc34)nc(N3CCSC3)n2)cc1OC` [Compound 7, N-{4-[2-(3,4-Dimethoxy-phenyl)-ethoxy]-6-thiazolidin-3-yl-[1,3,5]triazin-2-yl}-N′-(1H-indol-3-ylmethylene)-hydrazine] was run?
A: 20 to 53 nM

Q: With `C(=N\Nc1nc(OCCc2ccccn2)nc(N2CCC3(CC2)OCCO3)n1)/c1c[nH]c2ccccc12` [Compound 8, N-[4-(1,4-Dioxa-8-aza-spiro[4.5]dec-8-yl)-6-(2-pyridin-2-yl-ethoxy)-[1,3,5]triazin-2-yl]-N′-(1H-indol-3-ylmethylene)-hydrazine] as the molecule, how does the IC50 read?
A: 500 nM

Q: How did the IC50 turn out when `O=C1CCN(c2nc(N/N=C/c3c[nH]c4ccccc34)nc(OCCc3ccccn3)n2)CC1` [Compound 11, 1-[4-[N′-(1H-Indol-3-ylmethylene)-hydrazino]-6-(2-pyridin-2-yl-ethoxy)-[1,3,5]triazin-2-yl]-piperidin-4-one] was run?
A: 500 nM

Q: Which IC50 does the source give for `COc1ccc(CCOc2nc(N/N=C/c3cccc(C)c3)cc(N(C)C)n2)cc1OC` [Compound 15, {2-[2-(3,4-Dimethoxy-phenyl)-ethoxy]-6-[N′-(3-methyl-benzylidene)-hydrazino]-pyrimidin-4-yl}-dimethyl-amine] here?
A: 20 to 56 nM

Q: With `COc1ccc(CCOc2cc(N(C)C)nc(N/N=C/c3cccc(C)c3)n2)cc1OC` [Compound 16, {6-[2-(3,4-Dimethoxy-phenyl)-ethoxy]-2-[N′-(3-methyl-benzylidene)-hydrazino]-pyrimidin-4-yl}-dimethyl-amine] as the molecule, how does the IC50 read?
A: 1060 nM

Q: How did the IC50 turn out when `COc1ccc(CCNc2nccc(N/N=C/c3cccc(C)c3)n2)cc1OC` [Compound 17, [2-(3,4-Dimethoxy-phenyl)-ethyl]-{4-[N′-(3-methyl-benzylidene)-hydrazino]-pyrimidin-2-yl}-amine] was run?
A: 636 nM

Q: `Cc1cccc(/C=N/Nc2cc(N)nc(N/N=C/c3cccc(C)c3)n2)c1` [Compound 19, 2,6-Bis-[N′-(3-methyl-benzylidene)-hydrazino]-pyrimidin-4-ylamine] was tested. Which IC50 did it give?
A: 119 nM

Q: How did the IC50 turn out when `COc1ccc(CCOc2nc(N/N=C/c3cccc(C)c3)nc(-n3ccnc3)n2)cc1OC` [Compound 21, N-{4-[2-(3,4-Dimethoxy-phenyl)-ethoxy]-6-imidazol-1-yl-[1,3,5]triazin-2yl}-N′-(3-methyl-benzylidene)-hydrazine] was run?
A: 103 nM

Q: How did the IC50 turn out when `Cc1cccc(/C=N/Nc2nc(CCCO)cc(N(C)C)n2)c1` [Compound 27, 3-{6-Dimethylamino-2-[N′-(3-methyl-benzylidene)-hydrazino]-pyrimidin-4-yl}-propan-1-ol] was run?
A: 9000 nM

Q: With `Cc1cccc(/C=N/Nc2nc(CCCOC(=O)Nc3ccc([N+](=O)[O-])cc3)cc(N(C)C)n2)c1` [Compound 28, (4-Nitro-phenyl)-carbamic acid 3-{6-dimethylamino-2-[N′-(3-methyl-benzylidene)-hydrazino]-pyrimidin-4-yl}-propyl ester] as the molecule, how does the IC50 read?
A: 1400 nM

Q: With `Cc1cccc(/C=N/Nc2nc(CCCOC(=O)Nc3ccc(C(F)(F)F)cc3)cc(N(C)C)n2)c1` [Compound 29, (4-Trifluoromethyl-phenyl)-carbamic acid 3-{6-dimethylamino-2-[N′-(3-methyl-benzylidene)-hydrazino]-pyrimidin-4-yl}-propyl ester] as the molecule, how does the IC50 read?
A: 10000 nM

Q: With `CCN(CC)c1cc(N/N=C/c2cccc(C)c2)nc(OCCN2CCOCC2)n1` [Compound 30, Diethyl-[6-[N′-(3-methyl-benzylidene)-hydrazino]-2-(2-morpholin-4-yl-ethoxy)-pyrimidin-4-yl]-amine] as the molecule, how does the IC50 read?
A: 875 nM

Q: For `COCCN(C)c1cc(N/N=C/c2cccc(C)c2)nc(OCCN2CCOCC2)n1` [Compound 31, (2-Methoxy-ethyl)-methyl-[6-[N′-(3-methyl-benzylidene)-hydrazino]-2-(2-morpholin-4-yl-ethoxy)-pyrimidin-4-yl]-amine], which IC50 is on record?
A: 674 nM

Q: With `O=C(Nc1ccc2c(c1)CCC2)Nc1cccc(-c2ccncc2)n1` [Compound 100, 1-[2,4′]Bipyridinyl-6-yl-3-indan-5-yl-urea] as the molecule, how does the IC50 read?
A: 148 nM

Q: `Cc1[nH]c2ccc(NC(=O)c3cc(OCCN4CCOCC4)cc(-c4ccncc4)n3)cc2c1C` [Compound 101, 4-(2-Morpholin-4-yl-ethoxy)-[2,4′]bipyridinyl-6-carboxylic acid (2,3-dimethyl-1H-indol-5-yl)-amide] was tested. Which IC50 did it give?
A: 20 nM

Q: For `COCCN(C)c1cc(C(=O)Nc2ccc3[nH]c(C)c(C)c3c2)nc(-c2ccncc2)c1` [Compound 102, 4-[(2-Methoxy-ethyl)-methyl-amino]-[2,4′]bipyridinyl-6-carboxylic acid(2,3-dimethyl-1H-indol-5-yl)-amide], which IC50 is on record?
A: 2.6 nM

Q: Which IC50 does the source give for `Cc1[nH]c2ccc(NC(=O)c3cccc(-c4ccncc4F)n3)cc2c1C` [Compound 103, 3′-Fluoro-[2,4′]bipyridinyl-6-carboxylic acid(2,3-dimethyl-1H-indol-5-yl)-amide] here?
A: 158 nM

Q: Which IC50 does the source give for `Cc1[nH]c2ccc(NC(=O)c3cccc(-c4cncnc4)n3)cc2c1C` [Compound 104, 6-Pyrimidin-5-yl-pyridine-2-carboxylic acid(2,3-dimethyl-1H-indol-5-yl)-amide] here?
A: > 1000 nM

Q: `Cc1[nH]c2ccc(NC(=O)c3cccc(-c4ccsc4)n3)cc2c1C` [Compound 105, 6-Thiophen-3-yl-pyridine-2-carboxylic acid(2,3-dimethyl-1H-indol-5-yl)-amide] was tested. Which IC50 did it give?
A: > 1000 nM

Q: How did the IC50 turn out when `Cc1[nH]c2ccc(NC(=O)c3cccc(-c4cccnc4)n3)cc2c1C` [Compound 106, [2,3′]Bipyridinyl-6-carboxylic acid(2,3-dimethyl-1H-indol-5-yl)-amide] was run?
A: > 1000 nM

Q: `Cc1[nH]c2ccc(NC(=O)c3cccc(-c4ccnc(F)c4)n3)cc2c1C` [Compound 107, 2′-Fluoro-[2,4′]bipyridinyl-6-carboxylic acid(2,3-dimethyl-1H-indol-5-yl)-amide] was tested. Which IC50 did it give?
A: 193 nM

Q: For `Cc1[nH]c2ccc(NC(=O)c3cccc(-c4cn[nH]c4)n3)cc2c1C` [Compound 108, 6-(1H-Pyrazol-4-yl)-pyridine-2-carboxylic acid(2,3-dimethyl-1H-indol-5-yl)-amide], which IC50 is on record?
A: 218 nM

Q: `Cc1cccc(/C=N/Nc2cc(OCCN3CCOCC3)nc(-c3ccncc3)n2)c1` [Compound 141, (E)-4-(2-(6-(2-(3-methylbenzylidene)hydrazinyl)-2-(pyridin-4-yl)pyrimidin-4-yloxy)ethyl)morpholine] was tested. Which IC50 did it give?
A: 94.6 nM

Q: Which IC50 does the source give for `COCc1cc(N/N=C/c2cccc(C)c2)nc(-c2ccncc2)n1` [Compound 142, (E)-4-(methoxymethyl)-6-(2-(3-methylbenzylidene)hydrazinyl)-2-(pyridin-4-yl)pyrimidine] here?
A: 80 nM

Q: How did the IC50 turn out when `Cc1cccc(/C=N/Nc2nc(N)nc(-c3cccnc3)n2)c1` [Compound 143, (E)-4-(2-(3-methylbenzylidene)hydrazinyl)-6-(pyridin-3-yl)-1,3,5-triazin-2-amine] was run?
A: > 1000 nM

Q: Which IC50 does the source give for `CSc1nc(NC(=O)Nc2cccc(C)c2)nc(-c2ccncc2)n1` [Compound 144, 1-(4-(methylthio)-6-(pyridin-4-yl)-1,3,5-triazin-2-yl)-3-m-tolylurea] here?
A: 128 nM
